# In ChEMBL document CHEMBL1148845, “Chiral tetrahydroquinoline derivatives as potent anti-hyperalgesic agents in animal models of sustained inflammation and chronic neuropathic pain” (Bioorg Med Chem Lett, 2007):
# Activity calls are given as the source filed them. The rule behind the calls is not given here.
# Experiments:
# [1] = Oral bioavailability in rat; assay type: ADME, organism-based; conditions: in vivo
# Mus musculus [2] = assay: Antinociceptive effect in ip dosed mouse assessed as reduction of licking time in late phase administered before 30 mins of formalin administration; conditions: 0.5 h
# Mus musculus [3] = assay: Antinociceptive effect in ip dosed mouse assessed as reduction of licking time in early phase administered before 30 mins of formalin administration; conditions: 0.5 h
# Glutamate NMDA receptor = assay: Displacement of [3H]glycine from NMDA receptor in rat cerebral cortex membrane; assay type: cell membranes
# [4] = Oral bioavailability in dog at 3 mg/kg, po; assay type: ADME, organism-based, Canis lupus familiaris; conditions: in vivo
# [5] = Oral bioavailability in rat at 3 mg/kg, po; assay type: ADME, organism-based; conditions: in vivo
# [6] = Plasma clearance in dog at 1 mg/kg, iv or 3 mg/kg, po; assay type: ADME, organism-based, Canis lupus familiaris
# [7] = Plasma clearance in rat at 1 mg/kg, iv or 3 mg/kg, po; assay type: ADME, organism-based
# [8] = Half life in dog at 1 mg/kg, iv or 3 mg/kg, po; assay type: ADME, organism-based, Canis lupus familiaris; conditions: in vivo
# [9] = Half life in rat at 1 mg/kg, iv or 3 mg/kg, po; assay type: ADME, organism-based; conditions: in vivo
# Mus musculus [10] = assay: Antinociceptive effect in po dosed mouse assessed as reduction of licking time in late phase by formalin test; assay type: functional
# Mus musculus [11] = assay: Antinociceptive effect in mouse assessed as reduction of licking time in late phase administered at 0.1 mg/kg, ip before 10 mins of formalin administration; assay type: functional; set-up: scale not given: the % may be the effect or the level left; conditions: route intraperitoneal
# Rattus norvegicus [12] = assay: Analgesic effect in po dosed CCI rat model assessed as reduction of thermal hyperalgesia after 1 hr; assay type: functional
# Rattus norvegicus [13] = species on record: Rattus norvegicus; assay: Inhibition of windup in rat spinal cord at 10 uM; assay type: functional, organism-based
structure (smiles),measurement,setting,value
O=C([O-])C1C/C(=C2/CCN(c3ccccc3)C2=O)c2ccc(Cl)cc2N1.[Na+] (stereo unspecified),bioavailability,[1],76%
CN1CC[C@]23c4c5ccc(O)c4O[C@H]2[C@@H](O)C=C[C@H]3[C@H]1C5 [MORPHINE],ED50,Mus musculus [2],0.56 mg/kg
same,ED50,Mus musculus [3],0.73 mg/kg
O=C(/C=C1\CC(C(=O)[O-])Nc2cc(Cl)ccc21)Nc1ccccc1.[Na+] (stereo unspecified),Log Ki,Glutamate NMDA receptor,-7.42
same,bioavailability,[4],64%
same,bioavailability,[5],85%
same,clearance,[6],1.4 mL/min/kg
same,clearance,[7],3.5 mL/min/kg
same,half-life,[8],2.4 h
same,half-life,[9],1.4 h
O=C([O-])C1C/C(=C2/CCCN(c3ccccc3)C2=O)c2ccc(Cl)cc2N1.[Na+] (stereo unspecified),Log Ki,Glutamate NMDA receptor,-5.71
O=C([O-])C1C/C(=C2/CC(=O)N(c3ccccc3)C2=O)c2ccc(Cl)cc2N1.[Na+] (stereo unspecified),Log Ki,Glutamate NMDA receptor,-5.64
C[C@]12N[C@H](Cc3ccccc31)c1ccccc12 [DIZOCILPINE],ED50,Mus musculus [10],0.1 mg/kg
same,Activity,Mus musculus [11],50%
O=C([O-])c1[nH]c2cc(Cl)cc(Cl)c2c1/C=C1\CCN(c2ccccc2)C1=O.[Na+],Log Ki,Glutamate NMDA receptor,-7.56
same,ED50,Mus musculus [10],0.6 mg/kg
same,ED50,Rattus norvegicus [12],2.95 mg/kg
O=C([O-])C1C/C(=C2/NC(=O)N(c3ccccc3)C2=O)c2ccc(Cl)cc2N1.[Na+] (stereo unspecified),Log Ki,Glutamate NMDA receptor,-7.8
O=C([O-])[C@H]1C/C(=C2/CCN(c3ccccc3)C2=O)c2ccc(Cl)cc2N1.[Na+],ED50,Mus musculus [10],0.14 mg/kg
same,ED50,Rattus norvegicus [12],0.14 mg/kg
same,Activity,Rattus norvegicus [13],Active
